Test results: PubChem BioAssay AID1195 (EPA DSSTox, 2008)

System: human maximum recommended daily dose, FDA database
Assay: DSSTox (FDAMDD) FDA Maximum (Recommended) Daily Dose Database
Conditions: active compounds read low
Procedure, shortened: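 MRDD values come from clinical trials with daily oral dosing, usually for 3–12 months, for the average adult, in mg/day converted to mg/kg-bw/day assuming 60 kg. Antineoplastic mg/m2 doses are divided by 37. Activity score maps log10(1/MRDD mmol) onto 1–100.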

[1] = TherapeuticCategory: anti inflammatory
[2] = TherapeuticCategory: antihypertensive
[3] = TherapeuticCategory: antineoplastic
[4] = TherapeuticCategory: antibacterial
[5] = TherapeuticCategory: antipsychotic

## CC(C)Cc1ccc(C(C)C(=O)OCc2ccccn2)cc1 (centres undefined)
[1]
  maximum recommended daily dose (mmol/kg-bw/day): 0.135

## CCOC(=O)[C@H](CCc1ccccc1)N[C@@H](C)C(=O)N1[C@H](C(=O)O)C[C@@H]2CCC[C@@H]21
[2]
  maximum recommended daily dose (mmol/kg-bw/day): 0.000799

## COc1cccc2c1C(=O)c1c(O)c3c(c(O)c1C2=O)C[C@@](O)(/C(C)=N/NC(=O)c1ccccc1)C[C@@H]3O[C@H]1C[C@H](N)[C@H](O)[C@H](C)O1
[3]
  maximum recommended daily dose (mmol/kg-bw/day): 0.0103

## C[C@]12CC[C@H]3[C@@H](CC[C@@]45O[C@@H]4C(O)=C(C#N)C[C@]35C)[C@@H]1CC[C@@H]2O
TherapeuticCategory: adrenocortical suppressant, treatment of breast cancer
  maximum recommended daily dose (mmol/kg-bw/day): 0.0243

## CN(C)CCOc1ccccc1Cc1ccccc1
TherapeuticCategory: antihistaminic
  maximum recommended daily dose (mmol/kg-bw/day): 0.013

## Cc1noc(NS(=O)(=O)c2ccc(N)cc2)c1C
[4]
  maximum recommended daily dose (mmol/kg-bw/day): 0.25

## Cc1cc(/C=C/c2ccc3cc(N(C)C)ccc3[n+]2C)c(C)n1-c1ccccc1
TherapeuticCategory: anthelmintic
  maximum recommended daily dose (mmol/kg-bw/day): 0.00434

## Cc1onc(-c2c(Cl)cccc2Cl)c1C(=O)N[C@@H]1C(=O)N2[C@@H]1SC(C)(C)[C@@H]2C(=O)O
[4]
  maximum recommended daily dose (mmol/kg-bw/day): 0.0355

## C=CCN1CC[C@]23CCCC[C@H]2[C@H]1Cc1ccc(O)cc13
TherapeuticCategory: narcotic antagonist
  maximum recommended daily dose (mmol/kg-bw/day): 0.000235

## CC1=C(C/C=C(\C)CCC[C@H](C)CCC[C@H](C)CCCC(C)C)C(=O)c2ccccc2C1=O
TherapeuticCategory: prothrombogenic vitamin
  maximum recommended daily dose (mmol/kg-bw/day): 0.000925

## C[C@@H]1C/C=C/C=C/C=C/C=C/[C@H](O[C@@H]2O[C@H](C)[C@@H](O)[C@H](N)[C@@H]2O)C[C@@H]2O[C@](O)(C[C@@H](O)C[C@H]3O[C@@H]3/C=C/C(=O)O1)C[C@H](O)[C@H]2C(=O)O
[4]
  maximum recommended daily dose (mmol/kg-bw/day): 0.000413

## O=C1CN=C(c2ccccc2)c2cc([N+](=O)[O-])ccc2N1
TherapeuticCategory: anticonvulsant, hypnotic
  maximum recommended daily dose (mmol/kg-bw/day): 0.00118

## CN(C)CCC(O)(c1ccccc1)c1ccccc1Cl (centres undefined)
TherapeuticCategory: antitussive
  maximum recommended daily dose (mmol/kg-bw/day): 0.00576

## CCCCC[C@H](O)/C=C/[C@@H]1[C@@H](C/C=C\CCCC(=O)O)[C@@H](O)C[C@H]1O
TherapeuticCategory: oxytocic, abortifacient
  maximum recommended daily dose (mmol/kg-bw/day): 3.53e-05

## Cc1ccnc(NS(=O)(=O)c2ccc(N)cc2)n1
[4]
  maximum recommended daily dose (mmol/kg-bw/day): 0.252

## CC(C)N=C(N)/N=C(\N)Nc1ccc(Cl)cc1
TherapeuticCategory: antimalarial
  maximum recommended daily dose (mmol/kg-bw/day): 0.0131

## Nc1ncnc2nc[nH]c12
TherapeuticCategory: research
  maximum recommended daily dose (mmol/kg-bw/day): 0.111

## O=C1CN2CCOC2(c2ccccc2Cl)c2cc(Cl)ccc2N1 (centres undefined)
TherapeuticCategory: anxiolytic
  maximum recommended daily dose (mmol/kg-bw/day): 0.000573

## COc1cccc2c1C(=O)c1c(O)c3c(c(O)c1C2=O)C[C@@](O)(C(=O)CO)C[C@@H]3O[C@H]1C[C@H](N)[C@@H](O)[C@H](C)O1
[3]
  maximum recommended daily dose (mmol/kg-bw/day): 0.00447

## CNNCc1ccc(C(=O)NC(C)C)cc1
[3]
  maximum recommended daily dose (mmol/kg-bw/day): 0.0271

## CCCCCCCCCCC(=O)O[C@H]1CC[C@H]2[C@@H]3CCc4cc(O)ccc4[C@H]3CC[C@]12C
TherapeuticCategory: estrogen
  maximum recommended daily dose (mmol/kg-bw/day): 0.00113

## CC(C(=O)O)c1ccc(N2CC=CC2)c(Cl)c1 (centres undefined)
[1]
  maximum recommended daily dose (mmol/kg-bw/day): 0.0528

## N=C(N)c1ccc(OCCCCCOc2ccc(C(=N)N)cc2)cc1
TherapeuticCategory: antiprotozoal
  maximum recommended daily dose (mmol/kg-bw/day): 0.0118

## C=C1/C(=C/C=C2/CCC[C@]3(C)[C@@H]([C@H](C)CCCC(C)C)CC[C@@H]23)C[C@@H](O)C[C@@H]1O
TherapeuticCategory: vitamin D source
  maximum recommended daily dose (mmol/kg-bw/day): 7.49e-06

## CC(C)[N+](C)(CCC(C(N)=O)(c1ccccc1)c1ccccc1)C(C)C
TherapeuticCategory: anticholinergic
  maximum recommended daily dose (mmol/kg-bw/day): 0.000472

## COc1cc(C[C@@H]2NCCc3cc(O)c(O)cc32)cc(OC)c1OC
TherapeuticCategory: bronchodilator
  maximum recommended daily dose (mmol/kg-bw/day): 0.000869

## OCc1cccnc1
TherapeuticCategory: vasodilator
  maximum recommended daily dose (mmol/kg-bw/day): 0.0458

## CC(C[N+](C)(C)C)OC(N)=O (centres undefined)
TherapeuticCategory: cholinergic
  maximum recommended daily dose (mmol/kg-bw/day): 0.0169

## Nc1nc(N)c2nc(-c3ccccc3)c(N)nc2n1
TherapeuticCategory: diuretic
  maximum recommended daily dose (mmol/kg-bw/day): 0.0131

## Cc1ccc(S(=O)(=O)NC(=O)NN2CC3CCCC3C2)cc1 (centres undefined)
TherapeuticCategory: antidiabetic
  maximum recommended daily dose (mmol/kg-bw/day): 0.0165

## N=C(N)N1CCc2ccccc2C1
[2]
  maximum recommended daily dose (mmol/kg-bw/day): 0.0285

## CC(CN(C)C)CN1c2ccccc2CCc2ccccc21 (centres undefined)
TherapeuticCategory: antidepressant
  maximum recommended daily dose (mmol/kg-bw/day): 0.0113

## CCOC(=O)[C@H](CCc1ccccc1)N[C@@H](C)C(=O)N1[C@H](C(=O)O)C[C@H]2CCCC[C@@H]21
[2]
  maximum recommended daily dose (mmol/kg-bw/day): 0.00124

## COCCc1ccc(OCC(O)CNC(C)C)cc1 (centres undefined)
TherapeuticCategory: antihypertensive, antianginal
  maximum recommended daily dose (mmol/kg-bw/day): 0.0249

## Nc1[nH]c(=O)ncc1F
TherapeuticCategory: antifungal
  maximum recommended daily dose (mmol/kg-bw/day): 1.16

## CC(=O)OCC(=O)[C@@]1(OC(=O)c2ccco2)[C@H](C)C[C@H]2[C@@H]3CCC4=CC(=O)C=C[C@]4(C)[C@@]3(F)[C@@H](O)C[C@@]21C
TherapeuticCategory: glucocorticoid, anti inflammatory
  maximum recommended daily dose (mmol/kg-bw/day): 0.000284

## CC#C[C@]1(O)CC[C@H]2[C@@H]3CCC4=CC(=O)CCC4=C3[C@@H](c3ccc(N(C)C)cc3)C[C@@]21C
TherapeuticCategory: abortifacient
  maximum recommended daily dose (mmol/kg-bw/day): 0.0233

## CCC[C@@H]1O[C@@H]2C[C@H]3[C@@H]4CCC5=CC(=O)C=C[C@]5(C)[C@H]4[C@@H](O)C[C@]3(C)[C@]2(C(=O)CO)O1
[1]
  maximum recommended daily dose (mmol/kg-bw/day): 1.01e-05

## CN1CCC(=C2c3ccccc3CC(=O)c3sccc32)CC1
TherapeuticCategory: antiasthmatic
  maximum recommended daily dose (mmol/kg-bw/day): 0.000108

## CN(C)[C@@H]1C(=O)C(C(N)=O)=C(O)[C@@]2(O)C(=O)C3=C(O)c4c(O)ccc(Cl)c4[C@@H](O)[C@H]3C[C@@H]12
[4]
  maximum recommended daily dose (mmol/kg-bw/day): 0.0323

## CN(C)CCOC1=Cc2ccccc2Sc2ccc(Cl)cc21
[5]
  maximum recommended daily dose (mmol/kg-bw/day): 0.0226

## COc1ccccc1OCC1CNC(=O)O1 (centres undefined)
TherapeuticCategory: anxiolytic, skeletal muscle relaxant
  maximum recommended daily dose (mmol/kg-bw/day): 0.0896

## CC[C@H](C)C(=O)O[C@H]1C[C@H](O)C=C2C=C[C@H](C)[C@H](CC[C@@H](O)C[C@@H](O)CC(=O)O)[C@H]21
TherapeuticCategory: antihyperlipoproteinemic
  maximum recommended daily dose (mmol/kg-bw/day): 0.00157

## CCCN1C[C@H](CSC)C[C@@H]2c3cccc4[nH]cc(c34)C[C@H]21
TherapeuticCategory: antiparkinsonian, dopamine receptor agonist
  maximum recommended daily dose (mmol/kg-bw/day): 0.000159

## NS(=O)(=O)c1ccc(N2CCCCS2(=O)=O)cc1
TherapeuticCategory: anticonvulsant
  maximum recommended daily dose (mmol/kg-bw/day): 0.0344

## CN[C@@H]1[C@@H](O)[C@@H](O[C@@H]2[C@@H](O)[C@H](O[C@H]3O[C@H](CN)CC[C@H]3N)[C@@H](N)C[C@H]2N)OC[C@]1(C)O
[4]
  maximum recommended daily dose (mmol/kg-bw/day): 0.00667

## Cc1c(-c2ccccc2)oc2c(C(=O)OCCN3CCCCC3)cccc2c1=O
TherapeuticCategory: antispasmodic
  maximum recommended daily dose (mmol/kg-bw/day): 0.034

## NC1=NC(=O)C(c2ccccc2)O1 (centres undefined)
TherapeuticCategory: CNS stimulant
  maximum recommended daily dose (mmol/kg-bw/day): 0.0107

## COc1cc([C@@H]2c3cc4c(cc3C(O[C@@H]3O[C@@H]5COC(c6cccs6)O[C@H]5[C@H](O)[C@H]3O)C3COC(=O)[C@@H]32)OCO4)cc(OC)c1O (some centres undefined)
[3]
  maximum recommended daily dose (mmol/kg-bw/day): 0.0107

## CN1[C@@H]2CC[C@H]1CC(OC(=O)C(CO)c1ccccc1)C2 (some centres undefined)
TherapeuticCategory: anticholinergic, mydriatic, antispasmodic
  maximum recommended daily dose (mmol/kg-bw/day): 4.6e-06

## CCCC(=O)c1ccc2c(c1)N(CCCN1CCN(C)CC1)c1ccccc1S2
[5]
  maximum recommended daily dose (mmol/kg-bw/day): 0.00408

## CC(=O)O[C@H]1C(=O)[C@@]2(C)[C@H]([C@H](OC(=O)c3ccccc3)[C@]3(O)C[C@H](OC(=O)[C@H](O)[C@@H](NC(=O)c4ccccc4)c4ccccc4)C(C)=C1C3(C)C)[C@]1(OC(C)=O)CO[C@@H]1C[C@@H]2O
[3]
  maximum recommended daily dose (mmol/kg-bw/day): 0.00554

## Cc1cccc(Nc2ccncc2S(=O)(=O)NC(=O)NC(C)C)c1
TherapeuticCategory: diuretic
  maximum recommended daily dose (mmol/kg-bw/day): 0.00956

## CCC1(CC)C(=O)NCC(C)C1=O (centres undefined)
TherapeuticCategory: sedative, hypnotic
  maximum recommended daily dose (mmol/kg-bw/day): 0.0364

## CC(C)(C)CC(=O)OCC(=O)[C@@]1(O)CC[C@H]2[C@@H]3CCC4=CC(=O)C=C[C@]4(C)[C@H]3[C@@H](O)C[C@@]21C
TherapeuticCategory: glucocorticoid
  maximum recommended daily dose (mmol/kg-bw/day): 0.00726

## COc1cnc(NS(=O)(=O)c2ccc(N)cc2)nc1
[4]
  maximum recommended daily dose (mmol/kg-bw/day): 0.0892

## CNC[C@H](O)c1ccc(O)c(O)c1
TherapeuticCategory: adrenergic, bronchodilator, mydriatic, antiglaucoma
  maximum recommended daily dose (mmol/kg-bw/day): 9.12e-05

## COc1ccc2c3c1O[C@H]1[C@@H](O)CC[C@H]4[C@@H](C2)N(C)CC[C@@]341
TherapeuticCategory: narcotic analgesic, antitussive
  maximum recommended daily dose (mmol/kg-bw/day): 0.0106

## C[C@H](CCC(=O)O)[C@H]1CC[C@H]2[C@@H]3C(=O)C[C@@H]4CC(=O)CC[C@]4(C)[C@H]3CC(=O)[C@]12C
TherapeuticCategory: choleretic
  maximum recommended daily dose (mmol/kg-bw/day): 0.0932
